For this assay, the system named is khc/+; klc/+ Drosophila larvae. As to the kind of experiment: Suppression of the flipper (tail-flipping) motor dysfunction phenotype in an animal model. The assay is classed as in vivo, Drosophila melanogaster. To be noted: for larvae effectively "cured" of their motor dysfunction: after accounting for penetrance. From the text:
A stock of fruit flies (Drosophila melanogaster) was generated that is heterozygous for both KHC and KLC, which encode proteins that associate to form functional kinesin-1, also called conventional kinesin. […] A number of factors that contribute to this incomplete penetrance were identified, including the following: • 1. The flipper phenotype of a given animal appears to be suppressed by the number of larvae that precede the animal in development. That is, if a larva is among the first to develop in a vial of eggs, it is more likely to show the flipper phenotype than if it is one of the last to emerge. • 2. The flipper phenotype appears to be less robust on hard media than it is on soft media. • 3. The phenotype is diminished by physically disturbing the larvae. • 4. The clearest expression of the flipper phenotype is restricted to that phase of the 3rd instar stage of development that follows the appearance of spiracles.
Attempts to accommodate these observations were mad in order to optimize penetrance of the phenotype. Specifically: • 1. Virgin females and males were confined to a single vial for only 2 days; the flies were then transferred to fresh vials for an additional 2 days; and this process was repeated to minimize the number of larvae that would emerge in each vial. • 2. Efforts were taken to minimize handling of the larvae. • 3. Attempts were made to score the phenotype late in the 3rd instar stage of development.
In a non-blinded experiment, compound 16 (Tables 1 and 2) was tested for its ability to suppress the flipper phenotype of khc/+; klc/+ Drosophila larvae (using the animal model described in Example 7), relative to vehicle (DMSO) alone. Specifically khc/+; klc/+ Drosophila larvae were grown in the presence or absence of 0.5 mM compound 16 and scored for motor dysfunction. A total of 151 larvae were scored, 77 in the vehicle-only group and 74 in the vehicle plus compound group. […] The ratio of Flipper to Non-Flipper phenotype observed in the vehicle-only group corresponds to an 81% penetrance of the flipper phenotype in this experiment. […] Note that equivalent conclusions were obtained if, instead of scoring the number of larvae with and without motor dysfunction, the severity of the aberrant movement was analyzed.
This experiment was repeated using a blinded format and a total of 221 larvae were scored. Of the larvae in this study 104 larvae were in the vehicle-only group and 117 larvae were in the treatment group. […] The results of this second study are quite similar to those of the first study: after accounting for the differences in penetrance between the studies, compound 16 effectively “cured” 42% of the larvae of their motor dysfunction in the first experiment, and 43% of the larvae in the second experiment.

Structures are written as SMILES.

With `Cc1c(-c2ccccc2)cc(-c2ccc(C(F)(F)F)cc2)n1-c1ccc(CCCC(=O)O)cc1` [Compound 16, 4-{4-[2-Methyl-3-phenyl-5-(4-trifluoromethyl-phenyl)-pyrrol-1-yl]-phenyl}-butyric acid], under “blinded repeat, 117 treated vs 104 vehicle larvae, vehicle penetrance 78%, Yates' chi-square p <1x10^-6”, the “reduction in flipper phenotype relative to vehicle” value is “highly significant reduction in flipper phenotype”. The “larvae effectively "cured" of their motor dysfunction” value (first (non-blinded) experiment, 0.5 mM) was found to be 42% and the “larvae effectively "cured" of their motor dysfunction” value (second (blinded) experiment) came to 43%. Besides, where the note is “non-blinded experiment, larvae grown with 0.5 mM compound, 74 treated vs 77 vehicle larvae, vehicle penetrance 81%, Fischer's test p less than 10^-4”, the “suppression of the Flipper phenotype relative to vehicle (DMSO)” value is reported as “significant suppression of the Flipper phenotype”.

These data come from patent US20090253768A1, “THERAPEUTIC COMPOUNDS FOR DISEASES AND DISORDERS” (Myriad Genetics, Incorporated, priority 2006, published 2009).
